Read-outs that look alike come from different tables or passages of the source.
Key:
CXCL10 induction [1] = experiment: CXCL10 induction in SKBR3 cancer cell/PBMC and monocyte co-cultures (Example 33); type: cell-based; details: Homo sapiens
[2] = tested on: STING pathway in THP1-Dual cells co-cultured with SKBR3 cancer cells; experiment: Cancer cell/THP1-IRF3-Luciferase reporter cell co-culture assay, SKBR3 (Example 26B); type: cell-based; details: Homo sapiens, SK-BR-3
[3] = tested on: OVCAR3-NucRed cancer cells; experiment: OVCAR3-NucRed co-cultures with PBMCs, enriched monocytes or CD16-depleted monocytes (Example 31); type: cell-based, human; details: 20 and 4 nM payload
From the text: Frozen human PBMCs (1×10^8) were thawed and aliquoted into three tubes: one aliquot was subjected to human monocyte enrichment [StemCell Technologies] (“CD16 depleted monocytes”), one aliquot was subjected to human monocyte enrichment without CD16 depletion [StemCell Technologies] (“enriched monocytes”), and one aliquot was not subjected to enrichment (“PBMCs”). For flow cytometry, cells (50,000) from each group were transferred to a U-bottom 96-well plate in 4-replicates, washed with PBS and stained with live/dead fixable Aqua dead cell staining dye (Molecular Probes) followed by staining with fluorophore conjugated target specific (triplicates) or isotype control antibodies (Pacific Blue anti-human CD14, FITC anti-human CD3, APC/Cy7 CD16, PE anti-human CD32, PE/Cy7 anti-human CD64). Cells were fixed and surface expression of the proteins of interest was determined by flow cytometry analysis on a MACSQuant flow cytometer. Data analysis was performed by FlowJo software. Table 3 provides the frequency (% of single/live cells)) of CD14−/CD16+, CD14+/CD16+, CD14−/CD32+, CD14+/CD32+, CD14−/CD64+, CD14+/CD64+, and CD14−/CD3+ cells in PBMCs, enriched monocytes, and CD16-depleted monocyte populations
OVCAR3-NucRed cells (generated as described in Example 28) were seeded (15,000/well) in 96-well CellBind surface tissue culture plates (Corning) and allowed to attach for 6 hours in RPMI-1640 medium with 10% FBS and 1% penicillin/streptomycin. Culture medium was replaced with fresh media (50 μL). […] PBMCs, enriched monocytes, and CD16-depleted monocytes were prepared as described in Example 29. Live PBMCs (30,000/well), enriched monocytes (20,000/well), and CD16-depleted monocytes (20,000/well) were then added to the wells in culture medium (50 μL) and the plate was placed in an IncuCyte© live cell imaging instrument in an incubator (37° C., 5% 02) and scanned every 4 hours over 2 days. The number of red objects (cancer cells) were quantified using the IncuCyte© Zoom software. Red object confluency in each well was normalized to its own T=0 time point red object confluency.

SKBR3 NucRed cells = experiment: Cancer cell killing activity in SKBR3 NucRed/PBMC or primary human monocyte co-cultures (Example 33); type: cell-based
Description: 20,000 cells (per well) SKBR3 NucRed cells were seeded in 96-well tissue culture plates and allowed to attach 6 hours in 50 μL of RPMI-1640 medium with 10% FBS and 1% penicillin/streptomycin.

[4] = tested on: Type III Interferons IFNλ1/IFNλ3 (IL29/IL28b); experiment: IFNλ1/IFNλ3 (IL29/IL28b) production, STING knock out SKBR3/PBMC co-cultures (Example 42); type: cell-based, human
Description: (§1) Type III IFN induction: Co-cultures of SKBR3 cells and PBMCs were setup as described above to analyze the induction of Type III Interferons in supernatants 24 hours post treatment using a human IL29/IL28b ELISA kit.

[5] = tested on: THP1-Dual cells cultured on Her2 recombinant protein coated plates; experiment: THP1 luciferase reporter cells on Her2 protein coated plates (Example 27B); type: cell-based; details: Homo sapiens
Description: The wells were then washed 1× with PBS-T and blocked by incubation with BSA (3% in PBS-T) for 1 hour at room temperature. […] THP1-dual reporter cells (50,000) were added into each well and incubated for 20 hours at 37° C. in a humidified atmosphere of 5% CO2. Cell culture supernatants (20 μl) from each incubated sample was added to resuspended QUANTI-Luc (50 μl) and the luminescent signal was measured immediately using a SpectraMax M5 plate reader (Molecular Devices). The EC50 value was determined from the dose response curve.

[6] = tested on: CXCL10 produced by the SKOV3 cancer cell monocultures; experiment: CXCL10 ELISA of SKOV3 monocultures with conditioned media from immune cells (Example 36); type: cell-based, human; details: 24 hours
Description: Conditioned media was prepared by culturing 1.5×10^6/mL PBMCs (two different donors), 1×10^6/mL primary monocytes (isolated from PBMCs from two different donors, as described in Example 29), or 1×10^6/mL THP1 cells in RPMI-1640 medium with 10% FBS and 1% penicillin/streptomycin for 24 hours at 37° C., 5% O2, in an incubator. The supernatants were collected and spun down at 2000 rpm for 10 min to remove any cells. SKOV3 cells were seeded in 96 well plates (30,000/well) and allowed to attach overnight in RPMI-1640 medium with 10% FBS and 1% penicillin/streptomycin. […] After incubation for 24 hours at 37° C., 5% O2 supernatants from the 96 well plates were analyzed for CXCL10 production using a human CXCL10 ELISA kit.

[7] = tested on: STING pathway in THP1-Dual cells co-cultured with OVCAR3 cancer cells; experiment: Cancer cell/THP1-IRF3-Luciferase reporter cell co-culture assay, OVCAR3 (Example 26A); type: cell-based; details: Homo sapiens, OVCAR-3, 20 h
Description: Induction of STING pathway in immune cells: The induction of STING pathway in immune cells by NaPi2b-targeted STING ADC was evaluated by a cancer cell/THP1-IRF3-Luciferase reporter cell co-culture assay. OVCAR3 human ovarian carcinoma cells were seeded in 96-well CellBind surface tissue culture plates (15,000/well) and allowed to attach for 6 hours in RPMI-1640 medium with 10% FBS and 1% penicillin/streptomycin. […] THP1-dual reporter cells (30,000) were then added to each well and the incubation continued for 20 hours at 37° C. in a humidified atmosphere of 5% CO2. Cell culture supernatants (20 μl) from each incubated sample was added to resuspended QUANTI-Luc (50 l) and the luminescent signal was measured immediately using a SpectraMax M5 plate reader (Molecular Devices). The EC50 value was determined from the dose response curve.

[8] = tested on: STING wild type (sgNT-2) SKBR3 cells; experiment: PBMC killing assay, STING wild type SKBR3 NucRed cells (Examples 30, 30A); type: cell-based, human; details: 100, 25, 5 and 1 nM payload
[9] = tested on: THP1-Dual cells cultured on NaPi2b recombinant peptide coated plates; experiment: THP1 luciferase reporter cells on NaPi2b peptide coated plates (Example 27A); type: cell-based; details: Homo sapiens, 20 h
Description: Human NaPi2b-derived peptide ([sequence]) was coated onto the surface of each well of a 96-well plate by incubation with the peptide (1p g/mL in PBS), overnight at 4° C. The wells were then washed 1× with PBS-T and blocked by incubation with BSA (3% in PBS-T) for 1 hour at room temperature. […] THP1-dual reporter cells (50,000) were added into each well and incubated for 20 hours at 37° C. in a humidified atmosphere of 5% CO2. Cell culture supernatants (20 μl) from each incubated sample was added to resuspended QUANTI-Luc (50 μl) and the luminescent signal was measured immediately using a SpectraMax M5 plate reader (Molecular Devices). The EC50 value was determined from the dose response curve.

[10] = tested on: IL29/IL28b induction (IFNλ1/λ3); experiment: Type III IFN induction, human IL29/IL28b ELISA, SKBR3/PBMC co-cultures (Example 33); type: cell-based; details: SK-BR-3, SKBR3/PBMC co-culture, supernatants 24 hours post treatment
Description: as §1

[11] = tested on: Type III Interferons IFNλ1/IFNλ3 (IL29/IL28b); experiment: IFNλ1/IFNλ3 (IL29/IL28b) production, STING wild type SKBR3/PBMC co-cultures (Example 42); type: cell-based, human
Description: as §1

CXCL10 induction [12] = experiment: CXCL10 induction in Calu3 cancer cell/PBMC co-cultures (Example 35); type: cell-based; details: Homo sapiens, Calu-3, read-out: EC50 - PBMC (CXCL10 induction)
Description: CXCL10 induction: Calu3 human lung adenocarcinoma cells were seeded in 96-well tissue culture plates and allowed to attach overnight at 37° C., 5% CO2 in 100 μL of EMEM medium with 10% FBS and 1% penicillin/streptomycin. Culture medium was replaced with fresh media (100 μL).

[13] = tested on: STING pathway in THP1-Dual cells co-cultured with SKOV3 cancer cells; experiment: Cancer cell/THP1-IRF3-Luciferase reporter cell co-culture assay, SKOV3 (Example 34); type: cell-based; details: Homo sapiens, SK-OV-3, 20 h
Description: The induction of STING pathway in immune cells by Her2-targeted STING ADC was evaluated by a cancer cell/THP1-IRF3-Luciferase reporter cell co-culture assay. SKOV3 human ovarian adenocarcinoma cells were seeded in 96-well CellBind surface tissue culture plates (20,000/well) and allowed to attach for 6 hours in McCoy's 5a medium with 10% FBS and 1% penicillin/streptomycin. […] 50,000 THP1-dual reporter cells were then added to each well and the incubation continued for 20 hours at 37° C. in a humidified atmosphere of 5% CO2. Cell culture supernatants (20 μL) from each incubated sample was added to resuspended QUANTI-Luc (50 μL) and the luminescent signal for IRF3 was measured immediately using a SpectraMax M5 plate reader (Molecular Devices). The EC50 value was determined from the dose response curve.

[14] = tested on: SKOV3 human ovarian cancer cells; experiment: SKOV3 xenograft, Fc mutant HER2 ADCs (Example 54); type: in vivo, mouse; details: iv day 1, n=10: Conjugate 8j 2.71/0.10, diABZI IV STING agonist 0/5 mg/kg
Description: Tumors were measured twice weekly using digital calipers and tumor volumes were calculated using the formula: tumor volume (mm^3)=(width^2×length)/2. Body weights were recorded daily for the first week and twice weekly thereafter. Animals remained on study until individual tumor volume reached ≥1000 mm^3≥1500 mm^3 or as indicated. Percent change in body weight was calculated using the formula: body weight change (%)=((weight^study day X−weight^study day 1)/weight^study day 1)*100. Tumor volumes are reported as mean±standard error of the mean (SEM). Tumor growth inhibition (% TGI) was defined as the percent difference in mean tumor volumes (MTVs) between treated and control groups. Tumor size was measured throughout each efficacy study to determine tumor growth inhibition (TGI). Percent tumor regression was calculated using the formula: % regression=(1−(mean tumor volume^final)/(mean tumor volume^day 1))*100. A partial response (PR) is defined as a tumor volume of 50% or less for day 1 volume for three consecutive measurements and equal to or greater than 13.5 mm^3 for at least one of these three measurements. A complete response (CR) is defined as a tumor volume less than 13.5 mm^3 for three consecutive measurements. A tumor-free survivor (TFS) is classified as having a CR at the end of study. […]

OVCAR3-NucRed cells = experiment: OVCAR3-NucRed/PBMC co-culture killing assay (Example 28B); type: cell-based, human
Description: OVCAR3 human ovarian carcinoma cells stably expressing nuclear restricted mKate fluorescent red protein were generated by transduction with IncuCyte© NucLight Red Lentivirus reagent. Stably transduced cells (designated as OVCAR3-NucRed cells) selected in puromycin-containing media (2 μg/mL) for two days, were seeded in 96-well tissue culture plates (8,000/well) and allowed to attach overnight in RPMI-1640 medium with 10% FBS and 1% penicillin/streptomycin. Culture medium was replaced with fresh media (50 μL). […] Frozen human peripheral blood mononuclear cells (PBMCs) were thawed according to the supplier's instructions and were added to each well (40,000 PBMCs in 50 μL media) and the plate was placed in an IncuCyte© live cell imaging instrument in an incubator (37° C., 5% 02) and scanned every 4 hours over 2 days. The number of red objects (cancer cells) were quantified using the IncuCyte© Zoom software. Red object confluency in each well was normalized to its own T=0 time point red object confluency.
OVCAR3-NucRed cells were seeded in 96-well tissue culture plates (20,000/well) and allowed to attach 6 hours in RPMI-1640 medium with 10% FBS and 1% penicillin/streptomycin. Culture medium was replaced with fresh media (50 μL). […] The number of red objects (cancer cells) were quantified using the IncuCyte© Zoom software. […]

CCn1nc(C)cc1C(=O)Nc1nc2cc(C(N)=O)cc(OC)c2n1C/C=C/Cn1c(NC(=O)c2cc(C)nn2CC)nc2cc(C(N)=O)cc(OCCCO)c21 [Compound 1]
EC50 (CXCL10 induction [1]; Monocyte, read-out: EC50 - Monocyte (CXCL10 induction)): 31.1 nM
EC50 (CXCL10 induction [1]; SK-BR-3, read-out: EC50 - PBMC (CXCL10 induction)): 26.1 nM
EC50 [2]: 7.4 nM
killing of OVCAR3-NucRed cancer cells by CD16 depleted monocytes (FIG. 5C) [3]: induced cancer cell killing
killing of OVCAR3-NucRed cancer cells by PBMCs (FIG. 5A) [3]: only in enriched monocyte and CD16-depleted monocyte co-cultures
killing of OVCAR3-NucRed cancer cells by enriched monocytes (FIG. 5B) [3]: induced cancer cell killing
IC50 (SKBR3 NucRed cells; SK-BR-3, read-out: IC50 - Monocyte (killing activity)): 8.32 nM
IC50 (SKBR3 NucRed cells; SK-BR-3, read-out: IC50 - PBMC (killing activity)): 9.51 nM
Bmax (IL29/IL28b production) ([4]; STING knock out (sgRNA#3) SKBR3/PBMC): 0 OD450
Bmax (IL29/IL28b production) ([4]; STING knock out (sgRNA#4) SKBR3/PBMC): 0 OD450
EC50 [5]: 8.8 nM
O.D. 450 + 100 nM Compound 1 (CXCL10) ([6]; Conditioned Media: Monocyte (Donor1)): 1.62 +/− 0.050 O.D. 450
O.D. 450 + 100 nM Compound 1 (CXCL10) ([6]; Conditioned Media: Monocyte (Donor2)): 0.97 +/− 0.142 O.D. 450
O.D. 450 + 100 nM Compound 1 (CXCL10) ([6]; Conditioned Media: None): 0.16 +/− 0.038 O.D. 450
O.D. 450 + 100 nM Compound 1 (CXCL10) ([6]; Conditioned Media: PBMC (Donor1)): 2.22 +/− 0.084 O.D. 450
O.D. 450 + 100 nM Compound 1 (CXCL10) ([6]; Conditioned Media: PBMC (Donor2)): 0.83 +/− 0.086 O.D. 450
O.D. 450 + 100 nM Compound 1 (CXCL10) ([6]; Conditioned Media: THP1): 0.18 +/− 0.043 O.D. 450
EC50 [7]: 6.8 nM
killing of SKBR3 cells/PBMC co-cultures (FIG. 3A) [8]: showed activity in STING wild type (sgNT-2) SKBR3 cells/PBMC co-cultures at 100 nM only
EC50 [9]: 5.18 nM
EC50 [10]: 28.3 nM
EC50 ([11]; Homo sapiens, SK-BR-3, read-out: EC50 (IL29/IL28b production)): 49.3 nM
Bmax (IL29/IL28b production) ([11]; STING wild type SKBR3/PBMC): 0.5 OD450

CCc1nc(C)oc1C(=O)Nc1nc2cc(C(N)=O)cnc2n1C/C=C/Cn1c(NC(=O)c2oc(C)nc2CC)nc2cc(C(N)=O)cc(OCCCO)c21 [Compound 30]
EC50 (CXCL10 induction [12]): 160 nM
EC50 [13]: 38.5 nM

diABZI IV STING agonist
PR (partial responses) [14]: 7

B1: Conjugate 81: "XMT-1535 was used instead of XMT-1519 and 2-(2-(2-(2-aminoethoxy)ethoxy)ethoxy)acetic acid was incorporated" instead of (3-(2-(2-aminoethoxy)ethoxy)propanoyl)-L-alanine (conjugate, chains of the INN, looked up)
VH: QVQLVQSGAEVVKPGASVKMSCKASGYTFTGYNIHWVKQAPGQGLEWIGAIYPGNGDTSYKQKFRGRATLTADTSTSTVYMELSSLRSEDSAVYYCARGETARATFAYWGQGTLVTVSS
VL: DIQMTQSPSSLSASVGDRVTITCSASQDIGNFLNWYQQKPGKTVKVLIYYTSSLYSGVPSRFSGSGSGTDYTLTISSLQPEDFATYYCQQYSKLPLTFGQGTKLELK
modifications: drug-linker conjugate with PEG linker
lower payload concentration compared to Compound 1 for induction of cancer cell killing (OVCAR3-NucRed cells): 100 ×
cancer cell killing by PBMCs (red object numbers, FIG. 1B) (OVCAR3-NucRed cells; 1-100 nM payload): robust induction of cancer cell killing
